Key:
[1] = test system: ICAM-1; experiment: ICAM expression on TNF-stimulated HUVEC (flow cytometry); type: cell-based, human
Experimental: Assay results reported in figures 63A and 63B, illustrate that inventive compound no. […] HUVEC were stimulated with TNFα (20 ng/ml) for 5 hours and stained using fluorescent antibodies to ICAM-1 or VCAM-1. Cell surface expression was analyzed by flow cytometry. All values were normalized to the peak mean fluorescence of the positive control (=100%). Average levels of induction using TNFα- stimulation were 20-fold higher for ICAM-1 and over 50-fold higher for VCAM-1 from that of nonstimulated controls, as shown in figures 63 and 63B.
Figures 73A and 73B illustrate inhibition by inventive compound no. 58 of VCAM or ICAM expression, respectively, in HUVEC activated by TNF. Cells were stimulated for 8 hours in the presence or absence of inventive compounds and stained with fluorescent antibodies to VCAM or ICAM and analyzed by flow cytometry.

[2] = test system: Balb/3T3 cells; experiment: PDGF-induced proliferation of Balb/3T3 cells; type: cell-based, murine
Experimental: Balb/3T3 cells respond vigorously to PDGF stimulation, and are useful in vitro models for further study of PDGF-induced proliferation. Disregulated PDGF-proliferative response has been linked to a variety of diseases, including, e.g., restenosis, atherosclerosis, fibrosis, and tumor cell angiogenesis. Cells were plated in low serum-containing medium for 24 hours prior to stimulation with various concentrations of inventive compound no. 45. PDGF-BB was added at constant 10 µM concentrations. Tritiated thymidine was added and cells harvested for scintillation counting 24 hours later. Figure 15 illustrates a dose response curve from this assay, including an IC50 value of approximately 0.08 µM, exemplifying inhibitory activity of the tested compound.
In another investigation similar to the Balb/3T3 proliferation assay of Example 32, IC50 and ID50 values for inventive compounds nos. 70, 45, 59 and 58 were determined. LD50 values were determined using a cytotoxicity assay, as in Example 32. In these assays, Balb/3T3 cells, stimulated with PDGF and treated with one of the above inventive compounds in a manner identical to the tritiated thymidine procedure above, were incubated instead with a viable dye BCECF, a fluorescent dye. Fluorescence was measured using a fluorescent plate reader. […] Figure 17 illustrates assay results by comparing […] value against LD50 values for the inventive compounds tested. Most compounds tested were non-cytotoxic yet were significant inhibitors of proliferation.
Inventive compounds nos. 77,7 and 78 were added at various concentrations one hour prior to PDGF stimulation. PDGF-BB was added at a constant 10 µM concentrations along with tritiated thymidine. The cells were allowed to incubate for one day, following addition of PDGF and tritiated thymidine. 24 Hours later, the cells were harvested and counted by liquid scintillation counting. Results for compounds nos.77, 7 and 78 are shown in figures 26A, 26B and 26C, respectively. Background counts were approximately 1% of control levels.
Results obtained for compound no. 50 in the PDGF-induced proliferation of Balb/3T3 cells (Example 32), reported in figure 28, illustrate the inhibitive properties of this compound on proliferation induced by PDGF, representing significant inhibition at concentrations as low as 2 µM. […] 50, are capable of reducing tumor cell growth by blocking oncogene-induced events.
Figure 66 reports that inventive compound no. 45 inhibited PDGF-induced murine BALB/3T3 proliferation. Procedurally, cells were rested overnight in 0.2% serum and stimulated with 25 ng/ml PDGF. Compound no. 45 was added 1 hour prior to stimulation. Cells were pulsed with ^3H-TdR 24 hours later and harvested for scintillation counting 4 hours later.
Figures 66A and 66B are a dose response and cytoxicity curves, respectively, for inhibition of proliferation in Balb/3T3 cells by inventive compound no. 58. In the assay protocol, cells were starved overnight in 0.5% serum containing medium, followed by stimulation with 20 ng/ml PDGF for 24 hours. The cells were labeled with ^3H-TdR for 4 hours and harvested and counted by scintillation. Figure 66B illustrates that inventive compound no.
Figure 68 illustrates an effect of the delayed addition of inventive compound no. 58 to Balb/3T3 proliferation in response to PDGF-BB. Cells were stimulated with PDGF (20 ng/ml) and inventive compound no. 58 added either simultaneous with PDGF (0) or at various times after addition of PDGF, up to 6 hours later. At 24 hours, the cells were pulsed with ^3H-TdR and counted by scintillation four hours later. […] 58 was added as late as 20 hours after PDGF.
Figure 69 illustrates that inventive compound no. […] In the assay protocol, cells were serum starved for 24 hours before adding either 20 ng/ml PDGF or 10% serum. The cells were pulsed with ^3HTdR 24 hours later. Inventive compound no.

[3] = test system: THP-1 cell adhesion to IL-1-activated HUVEC; experiment: THP-1 cell adhesion to activated HUVEC; type: cell-based, human
Experimental: This example illustrates inhibitive activity of compounds nos. 50 and 57 on THP-1 cell adhesion to IL-1-activated HUVEC. In an investigative assay, HUVEC were stimulated with IL-1 (10 ng/ml), both in the absence and presence of varying concentrations of drugs for 8 hours in a 96-well microtiter plate. In the wellplate, human monocytic leukemia cell line THP-1 cells were added at 50,000 cells per well. The THP-1 cells were pre-incubated with BCECF, a fluorescence dye that can be used to measure cell number using a fluorescence plate reader. After 10 minutes at 37 °C, the microtiter plate was inverted and spun at 900 rpm. The remaining adhering THP-1 cells were then analyzed.
Inventive compound no. […] HUVEC were stimulated with 20 ng/ml IL-1β or 15 ng/ml TNFα for 6 hours. Fluorescence labeled (BCECF-AM) THP-1 cells were allowed to adhere to the HUVEC for 20 minutes, washed once and the amount of fluorescence remaining analyzed on a fluorescence plate reader. The results, reported in figures 62A and 62B (TNFα or IL-1β, respectively), show inhibition of THP-1 adhesion to HUVEC.
Figures 72A and 72B illustrate that inventive compound no. 58 inhibited THP-1 cell adhesion to either TNF or IL-1-stimulated HUVEC, respectively. Procedurally, HUVEC were stimulated with TNF or IL-1 for 8 hours and THP-1 cells added for 20 minutes. The HUVEC were then washed and analyzed for adherence. Inventive compound no. 58 inhibited adhesion of THP-1 cells to HUVEC with an IC50 of approximately 1 µM for both TNF and IL-1.

SMILES: CCCCCCCCNCC(O)CCCCCCCCCn1c(=O)c2c(ncn2C)n(C)c1=O (centres unmarked) [compound no. 45]
- ICAM-1 cell surface expression ([1]; TNFα (20 ng/ml), 5 hours): inhibited adhesion receptor expression on HUVEC
- IC50 ([2]; Mus musculus, BALB/3T3, PDGF-BB, low serum 24 hours): ~80 nM
- inhibition of THP-1 adhesion ([3]; 20 ng/ml IL-1β or 15 ng/ml TNFα, 6 hours): inhibited adhesion of monocytic leukemia cells (THP-1) to IL-1β or TNFα-activated HUVEC

SMILES: CCCCCCCCCCCCNCC(O)CCCCCCCCCn1c(=O)c2c(ncn2C)n(C)c1=O (centres unmarked) [compound no. 50, 1-(11-Dodecylamino-10-hydroxyundecyl)-3,7-dmethylxanthine]
- minimal effective concentration ([2]; Mus musculus, BALB/3T3, fig. 28, read-out: concentrations giving significant inhibition): ≥ 2 µM
- inhibition of THP-1 adhesion ([3]; IL-1 (10 ng/ml), 8 hours): significantly inhibited THP-1 adhesion, even at low concentratations

SMILES: COc1cc(CNCC(O)CCCCCCCCCn2c(=O)c3c(ncn3C)n(C)c2=O)cc(OC)c1OC (centres unmarked) [compound no. 58, 1-[11-(3,4,5-Trimethoxybenzylamino)-10-hydroxyundecyl]-3,7-dimethylxanthine]
- ICAM expression ([1]; TNF, 8 hours): inhibition
- PDGF-induced versus serum-induced proliferation ([2]; 20 ng/ml PDGF or 10% serum): inhibited PDGF- induced proliferation in Balb/3T3 cells to a greater extent than serum-induced proliferation
- effect on serum-induced proliferation ([2]; 10% serum): did not have a significant effect on serum-induced Balb/3T3 proliferation
- IC50 ([2]; Mus musculus, BALB/3T3, 20 ng/ml PDGF, 24 hours): 200 to 500 nM
- inhibition with delayed addition ([2]; added as late as 20 hours after PDGF): nearly complete inhibition in proliferation
- IC50 ([3]; Homo sapiens, TNF-stimulated HUVEC, 8 hours): ~1000 nM

Reference: patent EP0719267B1, “SECOND MESSENGER CELL SIGNALING INHIBITORS” (CELL THERAPEUTICS, INC., priority 1993, dated 1994)
